Target: T1, CCR2 (Homo sapiens, UniProt P41597)
T1 construct: host or cells: THP-1 cells
T1 sequence (P41597 1-360 isoform P41597-2): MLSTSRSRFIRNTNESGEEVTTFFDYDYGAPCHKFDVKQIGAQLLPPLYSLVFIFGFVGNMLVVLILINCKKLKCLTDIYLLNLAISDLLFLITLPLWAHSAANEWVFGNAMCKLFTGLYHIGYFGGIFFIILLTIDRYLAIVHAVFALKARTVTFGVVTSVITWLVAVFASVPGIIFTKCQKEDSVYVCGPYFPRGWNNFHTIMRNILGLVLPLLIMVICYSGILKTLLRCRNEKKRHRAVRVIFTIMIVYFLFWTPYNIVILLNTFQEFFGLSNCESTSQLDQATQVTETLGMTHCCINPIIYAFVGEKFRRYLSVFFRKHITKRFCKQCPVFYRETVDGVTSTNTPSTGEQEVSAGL
Test: MCP-1 Receptor Binding Assay in THP-1 Cells
Conditions: for IC50: THP-1 cells, 0.5 nM 125I labeled MCP-1, 2 hours at 30° C., read-out: Inhibition of MCP-1 Binding IC50; for inhibition at 25 µM: test concentration of 25 μM, given where an IC50 value was not obtained, read-out: Inhibition of MCP-1 Binding, percent inhibition
Protocol: THP-1 cells were obtained from American Type Culture Collection (Manassas, Va., USA). The THP-1 cells were grown in RPMI-1640 supplemented with 10% fetal bovine serum in a humidified 5% CO2 atmosphere at 37° C. The cell density was maintained […].
THP-1 cells were incubated with 0.5 nM ^125, labeled MCP-1 (Perkin-Elmer Life Sciences, Inc. Boston, Mass.) in the presence of varying concentrations of either unlabeled MCP-1 (R & D Systems, Minneapolis, Minn.) or test compound for 2 hours at 30° C. in a 96 well plate. Cells were then harvested onto a filter plate, dried, and 20 μL of Microscint 20 was added to each well. Plates were counted in a TopCount NXT, Microplate Scintillation & Luminescence Counter (Perkin-Elmer Life Sciences, Inc. Boston, Mass.). Blank values (buffer only) were subtracted from all values and drug treated values were compared to vehicle treated values. 1 μM cold MCP-1 was used for nonspecific binding.
Table 1 lists IC50 values for inhibition of MCP-1 binding to CCR2 obtained for test compounds of the invention.

Structure (SMILES) | IC50 [nM] | inhibition at 25 µM [%]
O=C(C(=O)N1CCC(c2ccc(Cl)cc2)CC1)C1CCN(C(=O)C=Cc2ccc(Cl)c(Cl)c2)CC1 [Compound 2, 1-[4-(4-chloro-phenyl)-piperidin-1-yl]-2-{1-[3-(3,4-dichloro-phenyl)-acryloyl]-piperidin-4-yl}-ethane-1,2-dione] | 4400 | –
O=C(/C=C/c1ccc(Cl)c(Cl)c1)N1CCC(C(O)C(=O)N2CCC(c3ccc(Cl)cc3)CC2)CC1 (stereo not drawn) [Compound 3] | 3400 | –
O=C(c1cc(F)c(F)c(F)c1)N1CCC(C(O)CN2CCC(c3c[nH]c4ccccc34)CC2)CC1 (stereo not drawn) [Compound 8, (4-{1-hydroxy-2-[4-(1H-indol-3-yl)-piperidin-1-yl]-ethyl}-piperidin-1-yl)-(3,4,5-trifluoro-phenyl)-methanone] | 6400 | –
O=C(CN1CCC(c2c[nH]c3ncccc23)CC1)C1CCN(C(=O)/C=C/c2cc(F)c(F)c(F)c2)CC1 [Compound 17, 1-(4-{2-[4-(1H-pyrrolo[2,3-b]pyridin-3-yl)-piperidin-1-yl]-acetyl}-piperidin-1-yl)-3-(3,4,5-trifluoro-phenyl)-propenone] | 9400 | –
Cc1cccc(/C=C/C(=O)N2CCC(C(O)CN3CCC(c4cc[nH]n4)CC3)CC2)c1 (stereo not drawn) [Compound 33] | 1400 | –
O=C(/C=C/c1cc(F)c(F)c(F)c1)N1CCC(C(O)CN2CCC(c3cc[nH]n3)CC2)CC1 (stereo not drawn) [Compound 35] | 1200 | –
O=C(Nc1ccc(Cl)c(Cl)c1)N1CCC(C(O)CN2CCC(c3cc[nH]n3)CC2)CC1 (stereo not drawn) [Compound 36, 4-{1-hydroxy-2-[4-(1H-pyrazol-3-yl)-piperidin-1-yl]-ethyl}-piperidine-1-carboxylic acid (3,4-dichloro-phenyl)-amide] | 1100 | –
O=C(Nc1ccc(F)c(F)c1)N1CCC(C(O)CN2CCC(c3cc[nH]n3)CC2)CC1 (stereo not drawn) [Compound 37, 4-{1-hydroxy-2-[4-(1H-pyrazol-3-yl)-piperidin-1-yl]-ethyl}-piperidine-1-carboxylic acid (3,4-difluoro-phenyl)-amide] | 8600 | –
CCOC(=O)C(CN1CCC(c2ccc(OC)cc2)CC1)C1CCN(C(=O)C=Cc2cc(F)c(F)c(F)c2)CC1 (stereo not drawn) [Compound 38, 3-[4-(4-methoxy-phenyl)-piperidin-1-yl]-2-{1-[3-(3,4,5-trifluoro-phenyl)-acryloyl]-piperidin-4-yl}-propionic acid ethyl ester] | 4700 | –
COc1ccc(C2CCN(CC(C(=O)O)C3CCN(C(=O)C=Cc4cc(F)c(F)c(F)c4)CC3)CC2)cc1 (stereo not drawn) [Compound 39, 3-[4-(4-methoxy-phenyl)-piperidin-1-yl]-2-{1-[3-(3,4,5-trifluoro-phenyl)-acryloyl]-piperidin-4-yl}-propionic acid] | – | 52
O=C(/C=C/c1cc(F)cc(F)c1)N1CCC(C(O)CN2CCC(c3nc4ccccc4o3)CC2)CC1 (stereo not drawn) [Compound 46] | 2100 | –
Cc1cccc(/C=C/C(=O)N2CCC(C(O)CN3CCC(c4nc5ccccc5o4)CC3)CC2)c1 (stereo not drawn) [Compound 47] | 3900 | –
CCOC(=O)C(CC1CCN(C(=O)C=Cc2cccc(C)c2)CC1)N1CCC(c2c[nH]c3ccccc23)CC1 (stereo not drawn) [Compound 48, 2-[4-(1H-indol-3-yl)-piperidin-1-yl]-3-[1-(3-m-tolyl-acryloyl)-piperidin-4-yl]-propionic acid ethyl ester] | – | 48
CCOC(=O)C(CC1CCN(C(=O)C=Cc2ccc(Cl)c(Cl)c2)CC1)N1CCC(c2c[nH]c3ccccc23)CC1 (stereo not drawn) [Compound 49, 3-{1-[3-(3,4-dichloro-phenyl)-acryloyl]-piperidin-4-yl}-2-[4-(1H-indol-3-yl)-piperidin-1-yl]-propionic acid ethyl ester] | – | 40
CCOC(=O)C(CC1CCN(C(=O)C=Cc2cc(F)c(F)c(F)c2)CC1)N1CCC(c2c[nH]c3ccccc23)CC1 (stereo not drawn) [Compound 50, 2-[4-(1H-indol-3-yl)-piperidin-1-yl]-3-{1-[3-(3,4,5-trifluoro-phenyl)-acryloyl]-piperidin-4-yl}-propionic acid ethyl ester] | – | 44
CCOC(=O)C(CC1CCN(C(=O)C=Cc2cc(F)cc(F)c2)CC1)N1CCC(c2c[nH]c3ccccc23)CC1 (stereo not drawn) [Compound 51, 3-{1-[3-(3,5-difluoro-phenyl)-acryloyl]-piperidin-4-yl}-2-[4-(1H-indol-3-yl)-piperidin-1-yl]-propionic acid ethyl ester] | – | 48
CCOC(=O)C(CC1CCN(C(=O)Nc2ccc(Cl)c(Cl)c2)CC1)N1CCC(c2c[nH]c3ccccc23)CC1 (stereo not drawn) [Compound 52, 3-[1-(3,4-dichloro-phenylcarbamoyl)-piperidin-4-yl]-2-[4-(1H-indol-3-yl)-piperidin-1-yl]-propionic acid ethyl ester] | – | 53

Structure (SMILES) | IC50 [nM] | inhibition at 25 µM [%]
Cc1cccc(C=CC(=O)N2CCC(CC(C(=O)O)N3CCC(c4c[nH]c5ccccc45)CC3)CC2)c1 (stereo not drawn) [Compound 53, 2-[4-(1H-indol-3-yl)-piperidin-1-yl]-3-[1-(3-m-tolyl-acryloyl)-piperidin-4-yl]-propionic acid] | – | 48
O=C(/C=C/c1cc(F)cc(F)c1)N1CCC(CC(CO)N2CCC(c3c[nH]c4ccccc34)CC2)CC1 (stereo not drawn) [Compound 54] | 5600 | –
O=C(/C=C/c1cc(F)c(F)c(F)c1)N1CCC(CC(CO)N2CCC(c3c[nH]c4ccccc34)CC2)CC1 (stereo not drawn) [Compound 55] | 3500 | –
O=C(/C=C/c1ccc(Cl)c(Cl)c1)N1CCC(CC(CO)N2CCC(c3c[nH]c4ccccc34)CC2)CC1 (stereo not drawn) [Compound 56] | 5700 | –
Cc1cccc(/C=C/C(=O)N2CCC(CC(CO)N3CCC(c4c[nH]c5ccccc45)CC3)CC2)c1 (stereo not drawn) [Compound 57] | 2600 | –
OCC(CC1CCN(C(=S)Nc2cccc(Br)c2)CC1)N1CCC(c2c[nH]c3ccccc23)CC1 (stereo not drawn) [Compound 59, 4-{3-hydroxy-2-[4-(1H-indol-3-yl)-piperidin-1-yl]-propyl}-piperidine-1-carbothioic acid (3-bromo-phenyl)-amide] | 6100 | –
O=C(O)C(CC1CCN(C(=O)Nc2ccc(Cl)c(Cl)c2)CC1)N1CCC(c2c[nH]c3ccccc23)CC1 (stereo not drawn) [Compound 62, 3-[1-(3,4-dichloro-phenylcarbamoyl)-piperidin-4-yl]-2-[4-(1H-indol-3-yl)-piperidin-1-yl]-propionic acid] | – | 55
CC(C)(C)OC(=O)N1CCC(C(O)CN2CCC(c3c[nH]c4ccc(NS(C)(=O)=O)cc34)CC2)CC1 (stereo not drawn) [Compound 63, 4-{1-hydroxy-2-[4-(5-methanesulfonylamino-1H-indol-3-yl)-piperidin-1-yl]-ethyl}-piperidine-1-carboxylic acid tert-butyl ester] | – | 46
COc1ccc(C2CCN(CC(=O)C3CCN(C(=O)/C=C/c4cc(F)c(F)c(F)c4)CC3)CC2)cc1 [Compound 64, 1-(4-{2-[4-(4-methoxy-phenyl)-piperidin-1-yl]-acetyl}-piperidin-1-yl)-3-(3,4,5-trifluoro-phenyl)-propenone] | 1300 | –
COc1ccc(C2CCN(CC(NC(=O)N(C)C)C3CCN(C(=O)C=Cc4cc(F)c(F)c(F)c4)CC3)CC2)cc1 (stereo not drawn) [Compound 68, 3-(2-[4-(4-methoxy-phenyl)-piperidin-1-yl]-1-{1-[3-(3,4,5-trifluoro-phenyl)-acryloyl]-piperidin-4-yl}-ethyl)-1,1-dimethyl-urea] | 2700 | –
O=C(OCc1ccccc1)N1CCC(O)(C(O)CN2CCC(c3c[nH]c4ccccc34)CC2)CC1 (stereo not drawn) [Compound 69, 4-hydroxy-4-{1-hydroxy-2-[4-(1H-indol-3-yl)-piperidin-1-yl]-ethyl}-piperidine-1-carboxylic acid benzyl ester] | 950 | –
O=C(/C=C/c1cc(C(F)(F)F)cc(C(F)(F)F)c1)N1CCC(O)(C(O)CN2CCC(c3c[nH]c4ccccc34)CC2)CC1 (stereo not drawn) [Compound 72] | 700 | –
OC(CN1CCC(c2c[nH]c3ccccc23)CC1)C1(O)CCN(C(=S)Nc2cc(Cl)cc(Cl)c2)CC1 (stereo not drawn) [Compound 83, 4-hydroxy-4-{1-hydroxy-2-[4-(1H-indol-3-yl)-piperidin-1-yl]-ethyl}-piperidine-1-carbothioic acid (3,5-dichloro-phenyl)-amide] | 860 | –
COc1ccc(C2CCN(CC(O)C3CCN(C(=O)Nc4cc(Cl)c(Cl)cc4F)CC3)CC2)cc1 (stereo not drawn) [Compound 90, 4-{1-hydroxy-2-[4-(4-methoxy-phenyl)-piperidin-1-yl]-ethyl}-piperidine-1-carboxylic acid (4,5-dichloro-2-fluoro-phenyl)-amide] | – | 87
COc1ccc(C2CCN(CC(O)C3CCN(C(=O)Nc4cc(F)cc(C(F)(F)F)c4)CC3)CC2)cc1 (stereo not drawn) [Compound 91, 4-{1-hydroxy-2-[4-(4-methoxy-phenyl)-piperidin-1-yl]-ethyl}-piperidine-1-carboxylic acid (3-fluoro-5-trifluoromethyl-phenyl)-amide] | 810 | –
COc1ccc(C2CCN(CC(O)C3(O)CCN(C(=O)/C=C/c4ccc(Cl)cc4)CC3)CC2)cc1 (stereo not drawn) [Compound 92] | 480 | –
